Measured values from patent publication US20240158446A1, “CYCLIC COMPOUND HAVING SELECTIVE INHIBITORY ACTION ON KRAS OVER HRAS AND NRAS” (CHUGAI SEIYAKU KABUSHIKI KAISHA, priority 2021, published 2024).
Where two headings read alike, the source gives them in different places. *1 amine or outer side, *2 acyl side, *3 side chain or, on linkers, in order; H or OH if unused. Where a SMILES comes first, the peptide text is derived from it. Bridges are numbered along the chain shown (N, C = ends). [ ]: non-standard residue; d: D form. The star is where a group is joined. hPhe(3,5-F2-4-CF3) = N[C@@H](CCc1cc(F)c(C(F)(F)F)c(F)c1)C(=O)O; hPhe(3-Cl-4-CF3) = N[C@@H](CCc1ccc(C(F)(F)F)c(Cl)c1)C(=O)O; X36 = Cc1ccc(C[C@@H](C(=O)[*:2])N(CCC(F)(F)F)[*:1])cc1; NPrPhe(4-CF3) = CCCN[C@@H](Cc1ccc(C(F)(F)F)cc1)C(=O)O; X21 = Cc1ccc(C[C@@H](C(=O)[*:2])N(CC2CC2)[*:1])cc1; NMeAbu(4,4,4-F3) = CN[C@@H](CC(F)(F)F)C(=O)O; NMeGly(cPent) = CN[C@H](C(=O)O)C1CCCC1; Pro(4,4-F2) = O=C(O)[C@@H]1CC(F)(F)CN1; NMeD = CN[C@@H](CC(=O)O)C(=O)O; NMeL = CN[C@@H](CC(C)C)C(=O)O; Iva = CC[C@](C)(N)C(=O)O; Morpholide = C1CN(*)CCO1; Ac5c = NC1(C(=O)O)CCCC1; Sar = CNCC(=O)O

Key:
[1] = target: GDP-bound NRAS wild-type protein (Homo sapiens, UniProt P01111); assay: Binding to NRAS by surface plasmon resonance (SPR), Single Cycle Kinetics; conditions: for NRAS/KRAS (ratio of KD value with respect to GDP-bound NRAS wild-type protein to KD value with respect to KRAS): SPR KD ratio NRAS/KRAS, class symbols; for NRAS/KRAS (ratio of KD value for NRAS to KD value for KRAS) / NRAS/KRAS (ratio of KD value with respect to NRAS to KD value with respect to KRAS): SPR, GDP-bound NRAS wild-type protein vs GDP-bound KRAS wild-type protein
[2] = target: GDP-bound KRAS wild-type protein (Homo sapiens, UniProt P01116); assay: Binding to KRAS by surface plasmon resonance (SPR), Single Cycle Kinetics; conditions: GDP-bound KRAS wild-type protein, read-out: KRAS KD
[3] = target: GDP-bound HRAS wild-type protein (Homo sapiens, UniProt P01112); assay: Binding to HRAS by surface plasmon resonance (SPR), Single Cycle Kinetics; conditions: for HRAS/KRAS (ratio of KD value with respect to GDP-bound HRAS wild-type protein to KD value with respect to KRAS): SPR KD ratio HRAS/KRAS, class symbols; for HRAS/KRAS (ratio of KD value for HRAS to KD value for KRAS) / HRAS/KRAS (ratio of KD value with respect to HRAS to KD value with respect to KRAS): SPR, GDP-bound HRAS wild-type protein vs GDP-bound KRAS wild-type protein
[4] = SPR Single Cycle Kinetics, 1:1 binding model

Chain of GDP-bound HRAS wild-type protein (P01112 whole entry): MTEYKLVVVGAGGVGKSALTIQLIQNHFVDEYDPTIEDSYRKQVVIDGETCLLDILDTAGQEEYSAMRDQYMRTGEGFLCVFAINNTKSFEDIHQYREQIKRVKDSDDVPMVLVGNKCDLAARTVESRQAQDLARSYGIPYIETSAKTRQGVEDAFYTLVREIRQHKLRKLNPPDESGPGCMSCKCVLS
Chain of GDP-bound NRAS wild-type protein (P01111 whole entry): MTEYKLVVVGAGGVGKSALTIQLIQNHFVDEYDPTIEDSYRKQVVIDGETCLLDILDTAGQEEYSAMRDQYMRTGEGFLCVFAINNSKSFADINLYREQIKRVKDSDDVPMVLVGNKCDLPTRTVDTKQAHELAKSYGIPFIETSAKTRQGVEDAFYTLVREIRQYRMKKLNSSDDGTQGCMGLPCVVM
Chain of GDP-bound KRAS wild-type protein (P01116 whole entry): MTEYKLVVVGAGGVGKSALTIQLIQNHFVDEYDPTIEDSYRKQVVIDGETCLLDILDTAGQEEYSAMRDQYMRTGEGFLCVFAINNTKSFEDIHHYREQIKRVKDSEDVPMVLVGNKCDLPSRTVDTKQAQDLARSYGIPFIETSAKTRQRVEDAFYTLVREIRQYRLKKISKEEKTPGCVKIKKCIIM

| Compound | Kd [2, 4] [nM] | NRAS/KRAS (ratio of KD value for NRAS to KD value for KRAS) [1] | HRAS/KRAS (ratio of KD value for HRAS to KD value for KRAS) [3] | other results |
| --- | --- | --- | --- | --- |
| CCC[C@H]1C(=O)N[C@@H]([C@@H](C)CC)C(=O)N(C)CC(=O)N(C)[C@H]2C/C=C\CCN(C2=O)[C@@H](Cc2ccc(C)cc2)C(=O)N(C)CC(=O)N[C@@H](CCc2cc(Cl)c3c(ccn3C)c2)C(=O)N2C[C@H](OCC)C[C@H]2C(=O)NC2(CC(C)(C)C2)C(=O)N(C)[C@@H](C(CC)CC)C(=O)N(C)[C@H](C(=O)N(C)C)CC(=O)N1C [PP2898] | 4.8 |  |  | NRAS/KRAS (ratio of KD value with respect to GDP-bound NRAS wild-type protein to KD value with respect to KRAS) [1]: A (a compound having 10 or more and less than 20 is denoted as A); HRAS/KRAS (ratio of KD value with respect to GDP-bound HRAS wild-type protein to KD value with respect to KRAS) [3]: A (a compound having 10 or more and less than 20 is denoted as A) |
| CCC[C@H]1C(=O)N[C@@H]([C@@H](C)CC)C(=O)N(C)CC(=O)N(C)[C@H]2C/C=C\CCN(C2=O)[C@@H](Cc2ccc(C)cc2)C(=O)N(C)CC(=O)N[C@@H](CCc2cc(Cl)c3sccc3c2)C(=O)N2C[C@H](OCC)C[C@H]2C(=O)NC2(CC(C)(C)C2)C(=O)N(C)[C@@H](C(CC)CC)C(=O)N(C)[C@H](C(=O)N(C)C)CC(=O)N1C [PP2890] | 0.42 |  |  | NRAS/KRAS (ratio of KD value with respect to GDP-bound NRAS wild-type protein to KD value with respect to KRAS) [1]: AA (a compound having 20 or more is denoted as AA); HRAS/KRAS (ratio of KD value with respect to GDP-bound HRAS wild-type protein to KD value with respect to KRAS) [3]: A (a compound having 10 or more and less than 20 is denoted as A) |
| C=CCN1CC(=O)N(C)[C@H]2C/C=C\CCN(C2=O)[C@@H](Cc2ccc(C(F)(F)F)cc2)C(=O)N(C)CC(=O)N[C@@H](CCc2ccc(C(F)(F)F)c(OC)c2)C(=O)N2C[C@H](OCC)C[C@H]2C(=O)NC2(CC(C)(C)C2)C(=O)N(C)[C@@H](C2CCCC2)C(=O)N(C)[C@H](C(=O)N(C)C)CC(=O)N(C)[C@@H](CCC)C(=O)N[C@@H]([C@@H](C)CC)C1=O [PP2106] |  | A (a compound having 10 or more and less than 20 is denoted as A) | A (a compound having 10 or more and less than 20 is denoted as A) | Kd ([2]; SPR, Single Cycle Kinetics): 0.2 nM |
| CCC[C@@H]1C[C@H]2C(=O)NC3(CC(C)(C)C3)C(=O)N(C)[C@@H](C3CCCC3)C(=O)N(C)[C@H](C(=O)N(C)C)CC(=O)N(C)[C@@H](CC)C(=O)N[C@@H]([C@@H](C)CC)C(=O)N(C)CC(=O)N(C)[C@H]3C/C=C\CCN(C3=O)[C@@H](Cc3ccc(C)cc3)C(=O)N(C)CC(=O)N[C@@H](CCc3cc(F)c(C(F)(F)F)c(F)c3)C(=O)N2C1 [PP2208] |  | A (a compound having 10 or more and less than 20 is denoted as A) | A (a compound having 10 or more and less than 20 is denoted as A) | Kd ([2]; SPR, Single Cycle Kinetics): 0.2 nM |
| CCOC[C@H]1C(=O)N[C@@H]([C@@H](C)CC)C(=O)N2CCC[C@H]2C(=O)N(C)[C@H]2C/C=C\CCN(C2=O)[C@@H](Cc2ccc(C(F)(F)F)cc2)C(=O)N(C)CC(=O)N[C@@H](CCc2ccc(C(F)(F)F)c(OC)c2)C(=O)N2C[C@H](OCC)C[C@H]2C(=O)N(C)C2(CCC2)C(=O)N(C)[C@@H](C(CC)CC)C(=O)N(C)[C@H](C(=O)N(C)C)CC(=O)N1C [PP2319] |  | AA (a compound having 20 or more is denoted as AA) | A (a compound having 10 or more and less than 20 is denoted as A) | Kd ([2]; SPR, Single Cycle Kinetics): 0.35 nM |
| CCO[C@@H]1C[C@H]2C(=O)NC3(CCC3)C(=O)N(C)[C@@H](C3CCCC3)C(=O)N(C)[C@H](C(=O)N(C)CCOC)CC(=O)N(C)[C@@H](CC(C)C)C(=O)N[C@@H]([C@@H](C)CC)C(=O)N(C)CC(=O)N(C)[C@H]3C/C=C\CCN(C3=O)[C@@H](Cc3ccc(C(F)(F)F)cc3)C(=O)N(C)CC(=O)N[C@@H](CCc3ccc4sccc4c3)C(=O)N2C1 [PP1325] |  |  |  | NRAS/KRAS (ratio of KD value for NRAS to KD value for KRAS) ([1]; KD ratio class): A (a compound having 10 or more and less than 20 is denoted as A); Kd ([2]; SPR, Single Cycle Kinetics, 1:1 binding model): 0.55 nM; HRAS/KRAS (ratio of KD value for HRAS to KD value for KRAS) ([3]; KD ratio class): A (a compound having 10 or more and less than 20 is denoted as A) |
| C#CC[C@H]1C(=O)N[C@@H]([C@@H](C)CC)C(=O)N(C)CC(=O)N(C)[C@H]2C/C=C\CCN(C2=O)[C@@H](Cc2ccc(C(F)(F)F)cc2)C(=O)N(C)CC(=O)N[C@@H](CCc2ccc(C(F)(F)F)c(OC)c2)C(=O)N2CCOC[C@H]2C(=O)NC2(CC(C)(C)C2)C(=O)N(C)[C@@H](C2CCCC2)C(=O)N(C)[C@H](C(=O)N(C)C)CC(=O)N1C [PP2905] | 0.24 |  |  | NRAS/KRAS (ratio of KD value with respect to GDP-bound NRAS wild-type protein to KD value with respect to KRAS) [1]: AA (a compound having 20 or more is denoted as AA); HRAS/KRAS (ratio of KD value with respect to GDP-bound HRAS wild-type protein to KD value with respect to KRAS) [3]: A (a compound having 10 or more and less than 20 is denoted as A) |
| CCCN1C(=O)CN(C)C(=O)CN(C)C(=O)[C@H]([C@@H](C)CC)NC(=O)[C@H](CC(C)C)N(C)C(=O)C[C@@H](C(=O)N(C)C)N(C)C(=O)[C@H](C2CCCC2)N(C)C(=O)[C@](C)(CC)NC(=O)[C@@H]2CCCN2C(=O)[C@H](CCc2cc(F)c(C(F)(F)F)c(F)c2)NC(=O)CN(C)C(=O)[C@@H]1Cc1ccc(C(F)(F)F)cc1 [PP0805] ([NMeL]I[Sar][Sar][NPrPhe(4-CF3)][Sar][hPhe(3,5-F2-4-CF3)]P[Iva][NMeGly(cPent)][NMeD]-NMe2; lactam N-11) | 0.16 |  |  | NRAS/KRAS (ratio of KD value with respect to NRAS to KD value with respect to KRAS) [1]: B (a compound having 3 or more and less than 10 is denoted as B); HRAS/KRAS (ratio of KD value with respect to HRAS to KD value with respect to KRAS) [3]: C (A compound having a KD ratio of 0.1 or more and less than 3 is denoted as C) |
| CC[C@H](C)[C@@H]1NC(=O)[C@H](CC(C)C)N(C)C(=O)C[C@@H](C(=O)N2CCOCC2)N(C)C(=O)[C@H](C2CCCC2)N(C)C(=O)C2(CCCC2)NC(=O)[C@@H]2CCCN2C(=O)[C@H](CCc2ccc(C(F)(F)F)c(Cl)c2)NC(=O)CN(C)C(=O)[C@H](Cc2ccc(C)cc2)N(CC2CC2)C(=O)CN(C)C(=O)CN(C)C1=O [PP0064] ([NMeL]I[Sar][Sar][X21][Sar][hPhe(3-Cl-4-CF3)]P[Ac5c][NMeGly(cPent)][NMeD]-Morpholide; lactam N-11) | 0.42 | C (A compound having a KD ratio of 0.1 or more and less than 3 is denoted as C) | C (A compound having a KD ratio of 0.1 or more and less than 3 is denoted as C) |  |
| C#CC[C@H]1C(=O)N[C@@H]([C@@H](C)CC)C(=O)N(C)CC(=O)N(C)[C@H]2CCCCCN(C2=O)[C@@H](Cc2ccc(C(F)(F)F)cc2)C(=O)N(C)CC(=O)N[C@@H](CCc2cc(F)c(C(F)(F)F)c(F)c2)C(=O)N2C[C@H](OCC)C[C@H]2C(=O)NC2(CCC2)C(=O)N(C)[C@@H](C2CCCC2)C(=O)N(C)[C@H](C(=O)N(C)C)CC(=O)N1C [PP0666] | 0.33 |  |  | NRAS/KRAS (ratio of KD value with respect to NRAS to KD value with respect to KRAS) [1]: B (a compound having 3 or more and less than 10 is denoted as B); HRAS/KRAS (ratio of KD value with respect to HRAS to KD value with respect to KRAS) [3]: B (a compound having 3 or more and less than 10 is denoted as B) |
| CC[C@H](C)[C@@H]1NC(=O)[C@H](CC(C)C)N(C)C(=O)C[C@@H](C(=O)N2CCOCC2)N(C)C(=O)[C@H](C2CCCC2)N(C)C(=O)C2(CCCC2)NC(=O)[C@@H]2CCCN2C(=O)[C@H](CCc2ccc(C(F)(F)F)c(Cl)c2)NC(=O)CN(C)C(=O)[C@H](Cc2ccc(C)cc2)N(CCC(F)(F)F)C(=O)CN(C)C(=O)CN(C)C1=O [PP0103] ([NMeL]I[Sar][Sar][X36][Sar][hPhe(3-Cl-4-CF3)]P[Ac5c][NMeGly(cPent)][NMeD]-Morpholide; lactam N-11) | 0.15 | B (a compound having 3 or more and less than 10 is denoted as B) | C (A compound having a KD ratio of 0.1 or more and less than 3 is denoted as C) |  |
| CCCN1C(=O)CN(C)C(=O)CN(C)C(=O)[C@H]([C@@H](C)CC)NC(=O)[C@H](CC(F)(F)F)N(C)C(=O)C[C@@H](C(=O)N2CCOCC2)N(C)C(=O)[C@H](C2CCCC2)N(C)C(=O)C2(CCCC2)NC(=O)[C@@H]2CC(F)(F)CN2C(=O)[C@H](CCc2ccc(C(F)(F)F)c(Cl)c2)NC(=O)CN(C)C(=O)[C@@H]1Cc1ccc(C(F)(F)F)cc1 [PP0199] ([NMeAbu(4,4,4-F3)]I[Sar][Sar][NPrPhe(4-CF3)][Sar][hPhe(3-Cl-4-CF3)][Pro(4,4-F2)][Ac5c][NMeGly(cPent)][NMeD]-Morpholide; lactam N-11) | 0.13 | B (a compound having 3 or more and less than 10 is denoted as B) | C (A compound having a KD ratio of 0.1 or more and less than 3 is denoted as C) |  |
| CC[C@H](C)[C@@H]1NC(=O)[C@H](CC(C)C)N(C)C(=O)C[C@@H](C(=O)N2CCOCC2)N(C)C(=O)[C@H](C2CCCC2)N(C)C(=O)C2(CCCC2)NC(=O)[C@@H]2CCCN2C(=O)[C@H](CCc2cc(F)c(C(F)(F)F)c(F)c2)NC(=O)CN(C)C(=O)[C@H](Cc2ccc(C(F)(F)F)cc2)N2CCCCC[C@@H](C2=O)N(C)C(=O)[C@H](C)NC1=O [PP0481] | 850 |  |  | NRAS/KRAS (ratio of KD value with respect to NRAS to KD value with respect to KRAS) [1]: B (a compound having 3 or more and less than 10 is denoted as B); HRAS/KRAS (ratio of KD value with respect to HRAS to KD value with respect to KRAS) [3]: B (a compound having 3 or more and less than 10 is denoted as B) |
